In patent publication US20070202166A1, “Method for increasing the rate and consistency of bioavailability of supplemental dietary ingredients” (priority 2006, published 2007):
Entries after “also recorded” stand apart in the source; their conditions may differ.

Tests used:
Assay type in all cases: physicochemical
[1] = Time to dissolve in stirred water, estimated by visual inspection; settings: for Time taken to dissolve: 100 mL water, constant stirring
Method: In order to determine the effect of fine-milling on the dissolution rate, initial testing was performed to examine the rate of dissolution of common supplemental dietary ingredients. For the purposes of this disclosure, the term “regular” as used herein makes reference to non-fine-milled particles. 100 mL of water was placed into a 250 mL beaker and a magnetic stirrer bar was added to the beaker. The beaker was then placed on a magnetic stirrer was set to constant speed. […] The time required to dissolve was estimated by visual inspection. Equal amounts of the fine-milled ingredients were then added to the water and the time required to dissolve was estimated by visual inspection.

[2] = Solubility test: powder added to stirred water until saturated, gravity filtered, dry residue on filter paper weighed; settings: Whatman 41 filter paper, particle retention 20-25 μm
Method: In order to test the capacity of fine-milling to improve the rate bioavailability of substances, a simple test was performed. The test was conceived to mimic various elements involved in the processes of oral administration of a nutritional supplement. The key parameters involved were rate of dissolution and solubility, as it is understood that an ingested nutrient must be dissolved or reduced to a bio-transportable size in order to be utilized biochemically by the body.
The rates of dissolution and solubility of regular common nutritional supplements were compared to fine-milled versions within a fixed time. […] 100 mL of water was added to a 250 mL beaker and a magnetic stirring bar was placed in the beaker. The beaker was placed on a magnetic stirrer and stirred with low speed. 1 g of a given supplemental dietary ingredient powder was added incrementally to the beaker with the stirring speed constant until the solution visually appeared saturated. The solution was filtered by gravity through a pre-weighed filter paper (Whatman 41, particle retention 20-25 μm). […]
The ‘Fold Change’ represents the change in the amount of substance unable to pass through the filter as calculated by the amount of unfiltered regular substance divided by the amount of unfiltered fine-milled substance and represents the potential theoretical improvement in bioavailability.

[3] = Kinetic dissolution experiment: 1 g in 50 mL water, filtered at 1 and 5 minutes
Method: In order to expand on the results of the aforenoted experiments, a kinetic experiment was conducted to examine the change in the dissolution rate over short time periods.
1 g of sample was added to 50 mL water in a flask with a magnetic stir bar on a stirrer set at constant speed. Separate samples were filtered at 1 and 5 minutes. The pre-weighed filter papers (Whateman 41, particle retention 20-25 μm) were allowed to dry and the amount of sample remaining on the filter paper was determined.

CN(CC(=O)O)C(=N)N.O [Creatine Monohydrate]
Time taken to dissolve ([1]; Fine-milled powder, same amount as regular): <5 min
Rate of dissolving, fine-milled compared with regular (in words) ([1]; Monohydrate): appeared to dissolved at the same rate in both the fine-milled and regular formats; also recorded: did not display a difference dependent on particle size
Time taken to dissolve ([1]; Regular (non-milled) powder): <5 min
Dry Powder On Filter ([2]; Fine-milled powder): 0.01 g
Dry Powder On Filter ([2]; Regular powder): 0.19 g
weight of unfiltered sample ([3]; Fine-milled, 1-minute interval, Monohydrate): 0.33 g
weight of unfiltered sample ([3]; Fine-milled, 1-minute interval, listed as creatine, Monohydrate): 0.32 g
weight of unfiltered sample ([3]; Fine-milled, 5-minute interval): 0.27 g
weight of unfiltered sample ([3]; Regular, 1-minute interval, listed as Creatine monohydrate, Monohydrate): 0.32 g
weight of unfiltered sample ([3]; Regular, 1-minute interval, listed as creatine, Monohydrate): 0.33 g
weight of unfiltered sample ([3]; Regular, 5-minute interval): 0.40 g
